Experimental data as given in article PMC11120408 (Foods, 2024).
Like-named read-outs stand apart in the source and are kept apart here.

What was measured:
α-glucosidase (α-Glu) [1] = target: T1, α-glucosidase (α-Glu) (Saccharomyces cerevisiae, UniProt P53341); assay: biochemical; type: biochemical; settings: for inhibition mode against α-Glu: L-B plots; for Ki: read-out: Ki (inhibition constant, binding to enzyme); for reversibility of inhibition: plots of v vs α-Glu concentration
T1 construct: purchased Shanghai Yuanye Bio-Technology Co., Ltd
Protocol: The same procedure in Section 2.2.1 was used to investigate the inhibition mechanisms of AK and MS against α-Glu. Using the Michaelis–Menten equation, inhibitors with various concentrations were utilized to evaluate the kinetic parameters (Km and Vmax). Moreover, the values of two kinetic constants Ki and Kis were determined using the Lineweaver–Burk (L-B) plots. The L-B equation could be expressed in a double reciprocal form for the mixed-type inhibition mechanism analysis:(1) 1/v=Km/Vmax1+I/Ki1/S+1/Vmax1+I/Kis
Km and Vmax denote the Michaelis–Menten constant and the maximum reaction velocity, respectively. [I] and [S] are the concentrations of the inhibitor and substrate, respectively. Ki and Kis represent the inhibition constants to bind with the enzyme and the enzyme–substrate complex, respectively. The secondary plots of the Y-intercept versus [I] are linearly fitted.

α-glucosidase (α-Glu) [2] = target: T1, α-glucosidase (α-Glu); assay: biochemical; settings: Cα-Glu = 0.10 U/mL, CpNPG = 2.08 mM, pH 6.8, 310 K; read-out: IC50 against α-Glu
Protocol: The stock solutions (2.0 mM) of AK/MS were prepared by dissolving them in dimethyl sulfoxide, respectively. […] The inhibitory activities of AK/MS against α-Glu were assessed in vitro according to the previous method with a slight modification. Firstly, 50 μL of α-Glu and different doses of inhibitors were mixed for 1 h at 310 K. Fifty microliter of pNPG (5.0 mM) was then put in to activate the reaction. After a 30 min incubation, the Na2CO3 solution (0.2 M, 100 μL) was added to stop the reaction. The absorbance of p-nitrophenol converted from pNPG was monitored at 405 nm on an Infinite® M200 PRO plate reader (Tecan, Durham, NC, USA).

α-glucosidase (α-Glu) [3] = target: T1, α-glucosidase (α-Glu); assay: Fluorescence quenching / binding of AK/MS to α-Glu; settings: for Kq (quenching rate constant): Ksv/τ0; for Kd: read-out: Ka (binding constant) (converted); for fluorescence quenching mechanism: Stern–Volmer analysis; for ΔH^0 / ΔS^0: van't Hoff, 298–310 K; for decrease of synchronous fluorescence intensity of α-Glu: Δλ = 60 nm (Trp); for reduction of three-dimensional fluorescence intensity of Peak 1 of α-Glu: α-Glu 2.0 μM, inhibitor 13.0 μM
Protocol: The fluorescence spectrum of α-Glu was acquired in the spectral region of 300–450 nm on an F97 Pro spectrofluorometer (Lengguang Tech., Shanghai, China) with both excitation and emission slits of 10 nm, when excited at 280 nm. The solution of α-Glu (2.0 μM) was titrated by successively adding different amounts of AK (final concentrations of 4.0, 8.0, 12.0, 16.0, 20.0, 24.0 and 28.0 μM, respectively) or MS (final concentrations of 1.0, 3.0, 5.0, 7.0, 9.0, 11.0 and 13.0 μM, respectively) at 298, 304, and 310 K.
The synchronous fluorescence spectrum was recorded from 270 to 330 nm, when the interval of the emission and excitation wavelength (Δλ = λem − λex) constant was fixed at 15 and 60 nm, respectively.
The three-dimensional fluorescence spectra of α-Glu with or without AK/MS were measured at 298 K. The excitation wavelength range was from 200 to 360 nm, and the emission was collected from 270 to 330 nm, together with an increment of 10 nm. The final concentrations of α-Glu, AK, and MS were 2.0, 13.0, and 13.0 μM, respectively.
All the samples were thoroughly mixed and kept for 6 min before detection, and the inner-filter effect was eliminated to correct the obtained fluorescence data, referring to our previous report.
Thus, the relative mechanism was investigated through the Stern–Volmer equation:(6) F0/F=1+Ksv[Q]=1+kqτ0[Q] where F0 and F are the fluorescence intensities of α-Glu without and with inhibitors, respectively. Ksv, [Q], kq, and τ0 represent the Stern–Volmer quenching constant, the concentration of inhibitor, the biomolecule quenching rate constant, and the average lifetime of protein in the absence of inhibitors, respectively. Specifically, Ksv is determined by the plot of F0/F against [Q], τ0 is about 10^−8 s, and kq is equal to Ksv/τ0.
The binding constants (Ka) of the α-Glu-AK and α-Glu-MS systems were evaluated by the following equation:(7) logF0−F/F=nlogKa−nlog1/[Qt]−(F0−F)[Pt]/F0 where [Pt] and [Qt] represent the total concentrations of α-Glu and the inhibitor, respectively. n is the number of binding sites.
To better reveal the binding mechanism of AK/MS to α-Glu, the critical forces between them were also explored. Typically, the binding forces between proteins and ligands could be estimated by the calculation of the thermodynamic parameters using the following equations:(8) logKa=−ΔH^0/2.303RT+ΔS^0/2.303R (9) ΔG^0=ΔH^0−TΔS^0 where T represents the absolute temperature (in Kelvin), and R is the universal gas constant (8.314 J mol^−1 K^−1). ΔH^0 and ΔS^0 stand for the enthalpy change and entropy change, respectively, and they could be calculated by the slope and the y-axis intercept in the linearly fitted plot between lnKa and 1/T (Figure S4A,B). Then, the free energy change (ΔG^0) is obtained according to Equation (9).

[4] = Solubility and light sensitivity (statement, no method)
α-Glu = settings: read-out: IC50 against α-Glu, cited from earlier work
[5] = mixed-type, L-B secondary plots

T1 sequence (P53341 whole entry): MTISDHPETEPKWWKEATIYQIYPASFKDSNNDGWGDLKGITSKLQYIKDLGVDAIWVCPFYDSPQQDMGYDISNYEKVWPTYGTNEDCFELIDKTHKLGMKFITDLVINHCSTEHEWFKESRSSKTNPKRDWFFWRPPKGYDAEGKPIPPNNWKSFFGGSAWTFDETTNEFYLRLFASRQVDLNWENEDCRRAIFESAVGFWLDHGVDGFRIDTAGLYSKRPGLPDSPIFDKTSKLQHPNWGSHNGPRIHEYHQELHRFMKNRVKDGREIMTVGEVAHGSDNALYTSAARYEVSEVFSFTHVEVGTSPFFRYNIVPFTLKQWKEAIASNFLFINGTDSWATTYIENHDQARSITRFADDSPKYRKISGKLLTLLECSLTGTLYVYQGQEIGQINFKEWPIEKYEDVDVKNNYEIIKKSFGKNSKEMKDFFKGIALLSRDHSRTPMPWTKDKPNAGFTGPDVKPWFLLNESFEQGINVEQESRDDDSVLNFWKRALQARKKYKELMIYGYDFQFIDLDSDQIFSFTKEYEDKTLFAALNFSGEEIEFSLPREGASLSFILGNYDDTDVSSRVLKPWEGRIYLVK

Structure (SMILES) | inhibition mode against α-Glu (α-glucosidase (α-Glu) [1]) | Ki (α-glucosidase (α-Glu) [1]; [5]) [µM] | reversibility of inhibition (α-glucosidase (α-Glu) [1]) | IC50 (α-glucosidase (α-Glu) [2]) [µM] | Ksv (Stern–Volmer quenching constant) (α-glucosidase (α-Glu) [3]; 298 K) | Kq (quenching rate constant) (α-glucosidase (α-Glu) [3]; 298 K) | Kd (α-glucosidase (α-Glu) [3]; 298 K) [µM] | Ksv (Stern–Volmer quenching constant) (α-glucosidase (α-Glu) [3]; 304 K) | ΔG^0 (α-glucosidase (α-Glu) [3]; 304 K) [kcal/mol] | Kq (quenching rate constant) (α-glucosidase (α-Glu) [3]; 304 K) | Kd (α-glucosidase (α-Glu) [3]; 304 K) [µM] | Ksv (Stern–Volmer quenching constant) (α-glucosidase (α-Glu) [3]; 310 K) | ΔG^0 (α-glucosidase (α-Glu) [3]; 310 K) [kcal/mol] | Kq (quenching rate constant) (α-glucosidase (α-Glu) [3]; 310 K) | Kd (α-glucosidase (α-Glu) [3]; 310 K) [µM] | fluorescence quenching mechanism (α-glucosidase (α-Glu) [3]) | ΔH^0 (α-glucosidase (α-Glu) [3]) [kcal/mol] | ΔS^0 (α-glucosidase (α-Glu) [3]) [J mol^−1K^−1] | decrease of synchronous fluorescence intensity of α-Glu (α-glucosidase (α-Glu) [3]) [%] | reduction of three-dimensional fluorescence intensity of Peak 1 of α-Glu (α-glucosidase (α-Glu) [3]; 298 K) [%] | also measured
C/C=C/C1=CC2=C(CO1)C(=O)[C@]1(C)OC(=O)[C@H](C(=O)CCCCCCC)[C@H]1C2 [AK, ankaflavin] | mixed type | 57.8 ± 5.89 | reversible inhibitors | 127 ± 2.5 | 2.23 ± 0.12 10^4 M^−1 | 2.23 ± 0.12 10^12 M^−1s^−1 | 58.1 | 2.08 ± 0.07 10^4 M^−1 | -2.488 ± 0.0813 | 2.08 ± 0.07 10^12 M^−1s^−1 | 63.3 | 1.91 ± 0.08 10^4 M^−1 | -2.519 ± 0.0526 | 1.91 ± 0.08 10^12 M^−1s^−1 | 69.4 | static quenching | -0.841 ± 0.0048 | 22.66 ± 0.84 | 59.4 | 24.9 | Vmax of α-Glu (α-glucosidase (α-Glu) [1]; inhibitor 30 μM): 4.02 ± 0.07 µM/min; Vmax of α-Glu (α-glucosidase (α-Glu) [1]; inhibitor 40 μM): 3.86 ± 0.04 µM/min; Kis (inhibition constant, binding to enzyme–substrate complex) (α-glucosidase (α-Glu) [1]; [5]): 3.45 ± 0.06 µM
C/C=C/C1=CC2=C(CO1)C(=O)[C@]1(C)OC(=O)[C@H](C(=O)CCCCC)[C@H]1C2 [MS, monascin] | mixed type | 298 ± 18.1 | reversible inhibitors | 302.6 ± 2.5 | 2.09 ± 0.02 10^4 M^−1 | 2.09 ± 0.02 10^12 M^−1s^−1 | 70.9 | 1.94 ± 0.04 10^4 M^−1 | -2.536 ± 0.0048 | 1.94 ± 0.04 10^12 M^−1s^−1 | 76.3 | 1.58 ± 0.03 10^4 M^−1 | -2.562 ± 0.0072 | 1.58 ± 0.03 10^12 M^−1s^−1 | 80.6 | static quenching | -1.18 ± 0.0239 | 18.68 ± 3.20 | 33.9 | 20.0 | sensitivity to light [4]: sensitive to light; solubility [4]: poor; Vmax of α-Glu (α-glucosidase (α-Glu) [1]; inhibitor 100 μM): 1.85 ± 0.04 µM/min; Vmax of α-Glu (α-glucosidase (α-Glu) [1]; inhibitor 200 μM): 1.76 ± 0.08 µM/min
C[C@H]1O[C@H](O[C@H]2[C@H](O)[C@@H](O)[C@@H](O[C@H]3[C@H](O)[C@@H](O)C(O)O[C@@H]3CO)O[C@@H]2CO)[C@H](O)[C@@H](O)[C@@H]1N[C@H]1C=C(CO)[C@@H](O)[C@H](O)[C@H]1O (stereo partly shown) [acarbose] | – | – | – | – | – | – | – | – | – | – | – | – | – | – | – | – | – | – | – | – | IC50 (α-Glu; previous work): 376 ± 4.4 µM
O=c1cc(-c2ccc(O)cc2)oc2cc(O)cc(O)c12 [apigenin] | – | – | – | – | – | – | – | – | – | – | – | – | – | – | – | – | – | – | – | – | IC50 (α-Glu): 10.5 ± 0.05 µM
